The results in this text go back to patent publication US4414388A, “1-Oxo-1H-thiazolo[3,2-a]pyrimidine-2-carboxamides” (Pfizer Inc., priority 1981, dated 1983).

Structures are written as SMILES.

By ED50 is commonly meant the dose that gives a 50% effect, or the effect in half of the subjects. A higher ED50 goes with weaker potency.

In series [1] the test system is dogs. Briefly: toleration study in dogs, 7 days oral. It is filed as in vivo, dog. How it is done: In toleration studies, III was given orally by gavage to dogs for a period of seven days at doses of 50, 150 and 300 mg/kg/day.
Series [2] deals with cold-restraint stress gastric ulcer. Briefly: cold-restraint stressed rat assay. The format is in vivo. As to the method: The effectiveness of the products of this invention as anticulcer agents is determined by the so-called cold-restraint stressed rat assay. In this test nonfasted female rats (Charles River C-D strain) weighing 70-140 gms. are administered the drug or carrier (control animals) intraperitoneally (in saline solution containing 1% carboxymethylcellulose and 0.1% Tween 80) or orally (in water) three hours before being lightly anesthetized with ether and taped in the supine position to individual sheets of plexiglass. After recovery from anesthesia, the restrained animals are positioned horizontally in a refrigerator maintained at 10°-12° C. and three hours later sacrificed by cervical dislocation. The abdomen of each rat is opened, the pylorus clamped, the stomach inflated with saline via an oral tube, the esophagus clamped and the stomach excised. The stomachs are placed in a 0.4% formaldehyde solution for approximately 30 seconds to harden the outer layers and facilitate examination. Each stomach is then cut open along the greater curvature and the glandular portion (hind stomach) examined for damage. The number of gastric erosions, their severity and the color of the stomachs is recorded. […]

The next series concerns inhaled histamine. Briefly: bronchoconstrictive effects of inhaled histamine. It is filed as in vivo, guinea pig. To be noted: 30 mg/kg i.p.
Series [3] deals with pentagastrin-stimulated acid output. The series is described as follows: pentagastrin-stimulated acid output in Heidenhain pouch dogs. It is filed as in vivo, dog. To be noted: 5 mg/kg, i.v.
For another series, the system named is IgE. The series is described as follows: passive cutaneous anaphylaxis (PCA) test, oral, IgE (reaginic antiserum) site. The format is in vivo, rat. To be noted: Table I, 1 mg./kg. As to the method: The antiallergy property of the compounds of this invention is evaluated by the passive cutaneous anaphylaxis (PCA) test (Ovary, J. Immun., 81, 355, 1958). In the PCA test, normal animals are injected intradermally (i.d.) with antibodies contained in serum obtained from actively sensitized animals. The animals are then challenged intravenously with antigen mixed with a dye such as Evans' Blue. The increased capillary permeability caused by the antigen-antibody reaction causes the dye to leak from the site of the antibody injection. The test animals are then asphyxiated and the intensity of the reaction determined by measuring the diameter and intensity of the blue coloration on the inner surface of the animals' skin.
The PCA test is a measure of the anti-allergic (especially anti-asthmatic) activity of a compound. Compounds which inhibit a positive PCA test induced by the rat immunochemical counterpart of human immunoglobulin E (IgE), or reagin, are considered to have anti-allergic activity (C. Mota, Ann. N.Y. Acad. Sci., 103, 264 1963). (Reagin is primarily immunoglobulin E [IgE] and is the principal immunoglobulin responsible for allergic asthma, anaphylaxis, hay fever, food sensitivities and certain manifestations of drug sensitivities, although recent evidence ascribes to the IgG class of antibodies a significant role in the mediation of allergic diseases). Such compounds when administered to a sensitized subject, human or animal, prior to the time when the subject comes into contact with antigens or substances to which it is allergic, will prevent the allergic reaction which would otherwise occur. They, therefore, provide a method for the prophylactic treatment of allergy or anaphylactic reactions of a reagin mediated nature.
To put it another way, such compounds block the release of mediators resulting from the antigen-antibody (allergic) reaction as illustrated in the PCA test using rat homocytotropic antibody--a known correlate of human reaginic antibody. Inhibition of reaginic antigen-antibody reactions in rats, the test animal of the PCA test, is regarded as representative of inhibition of human reaginic antigen-antibody reactions which occur during allergic episodes.
The ability of agents to interfere with PCA reactions is measured in male Charles River Wistar rats, 170-210 g. Reaginic antiserum, rich in IgE antibodies, is prepared according to Petillo et al., Int. Arch. Allergy, 44, 309 (1973). Hyperimmune antiserum rich in IgG antibodies to hen egg albumin is prepared according to Orange et al., J. Exptl. Med., 127, 767 (1968). Forty-eight hours prior to antigen challenge, the reaginic antiserum is injected intradermally (i.d.) into the shaved skin of a normal rat's back; 5 hours before challenge the hyperimmune antisera is similarly injected. At a third site 60 mcg. histamine dihydrochloride and 0.5 mcg. serotonin creatinine sulfate are injected i.d. just prior to antigen challenge as a check for antihistaminic, antiserotonin and unspecific types of blockage; the compounds of the instant invention or saline are then administered i.v. and immediately followed by the challenge of 5 mg. egg albumen and 2.5 mg. Evans' Blue dye in saline. In the case of oral administration Evans' Blue dye and egg albumin are given 5 minutes after administration of the drug. Thirty minutes later the animals are asphyxiated using chloroform and the skin of the back removed and reversed for observation. A score is assigned each injection site equal to the product of the diameter of the site in mm. and a grade of 0.1, 0.5, 1, 2, 3 or 4 proportional to intensity of dye coloration. The scores for a given injection site are summed for each group of five animals and compared to the saline treated controls. The difference is expressed as percent blockage due to the compound employed. […]

Series [4] has as its system ulcerogenic effects of aspirin. Briefly: aspirin-induced gastric ulcer. It is filed as in vivo. As to conditions: po; aspirin 100 mg/kg p.o. How it is done:
Compound III also protects against the ulcerogenic effects of aspirin, 100 mg/kg p.o. where dose-related effects are seen over the dose range of 10 to 1000 μg/kg, p.o. with an ED50 of 100 μg/kg. Compound III is also active in a phenylbutazone gastric ulcer model where an oral ED50 of 200 μg/kg is observed. […] "Cytoprotective," a term coined recently to describe the antiulcer effects of prostaglandins that are independent of antisecretory activity, [Robert, Advances in Prostaglandin and Thromboxane Research 2, 507 (1976); Miller et al., Gut 20, 75 (1979); Robert et al., Gastroenterology 72, 1121 (1977).] aptly characterizes the effects of compound III.

Series [5] deals with dextran induced release of histamine. Briefly: dextran induced release of histamine into the rat peritoneal cavity. The format is in vivo. As to conditions: ip. The text has this: Compound III inhibits dextran induced release of histamine into the rat peritoneal cavity.
The test system of the next series is human lymphocytes. Briefly: chromosomal breakage in human lymphocytes in vitro. The format is cell-based. To be noted: 1000, 100, 10 or 0 μg/ml.
Series [6] is described as follows: stability (solid state, in admixture and in solution). It is filed as physicochemical. To be noted: pure solid state, with standard pharmaceutical diluents.
Series [7] relates to dogs. Briefly: dogs, intravenous five days, serum enzymes. It is filed as in vivo, dog. As to conditions: i.v. five days at 1, 3, 10, 3 and 3 mg/kg.
The next series deals with isolated rat monocytes. The series is described as follows: ionophore-stimulated synthesis and release of SRS in isolated monocytes. It is filed as cell-based.
Setting [8] is: oral gavage 50, 150 and 300 mg/kg/day, seven days.

Take `O=C(Nc1nnn[nH]1)c1cnc2sc3c(n2c1=O)CCCC3` [compound III, N-(5-tetrazolyl)-1-oxo-1H-cyclohexenothiazolo[3,2-a]pyrimidine-2-carboxamide]: the “emetic effect when administered by capsule after meals” value in the series on dogs [1] (capsule after, rather than before, meals) was “could be eliminated”. Also, in the series with dogs [1] (setting [8]), the emesis entry is reported as “observed at all doses”; the gross pathological changes result is on record as “No gross pathological changes were observed”; the “microscopic examination of liver, kidney, heart and lung” value is “did not reveal any changes”. Besides, in [2] (oral), the “potency in the cold-restraint stress gastric ulcer procedure and the ethanol-induced rat ulcer assay, in words” value is “highly potent”. Further, the “potency in the cold-restraint stressed rat assay” value in [2] (rat, in vivo) was “extremely potent”. Moreover, the “protection against bronchoconstrictive effects of inhaled histamine” value with inhaled histamine is “not protected”. Also, the pentagastrin-stimulated acid output entry in series [3] was “does not affect pentagastrin-stimulated acid output”. In addition, in the series on IgE, the “Oral Activity (% of Protection) of Amides in the PCA Test, IgE 1 mg./kg.” value is 47%. Moreover, it took a dose of 0.1 mg/kg to reach the 50% effect level in [4] (ED50). This compound also displayed an ED50 in series [5] of 0.00033 mg/kg. In the series with human lymphocytes, the “chromosomal breakage in human lymphocytes” value is “failed to reveal any significant drug-induced chromosomal breakage”. Also, the stability result in [6] was “exceptionally good stability”. The stability result in series [6] (listed as formula III) is listed as “highly stable”. Moreover, the serum enzyme levels result in the series with dogs [7] was “remained normal”. Also, in the series with isolated rat monocytes, the “synthesis and release of SRS in isolated rat monocytes, stimulated by an ionophore” value is reported as “is not inhibited”.
